# Data reported in ChEMBL document CHEMBL1909046, “DrugMatrix in vitro pharmacology data”.
# Molecular target: T1, 5-hydroxytryptamine receptor 2C (Homo sapiens, UniProt P28335)
# T1 sequence (P28335 whole entry): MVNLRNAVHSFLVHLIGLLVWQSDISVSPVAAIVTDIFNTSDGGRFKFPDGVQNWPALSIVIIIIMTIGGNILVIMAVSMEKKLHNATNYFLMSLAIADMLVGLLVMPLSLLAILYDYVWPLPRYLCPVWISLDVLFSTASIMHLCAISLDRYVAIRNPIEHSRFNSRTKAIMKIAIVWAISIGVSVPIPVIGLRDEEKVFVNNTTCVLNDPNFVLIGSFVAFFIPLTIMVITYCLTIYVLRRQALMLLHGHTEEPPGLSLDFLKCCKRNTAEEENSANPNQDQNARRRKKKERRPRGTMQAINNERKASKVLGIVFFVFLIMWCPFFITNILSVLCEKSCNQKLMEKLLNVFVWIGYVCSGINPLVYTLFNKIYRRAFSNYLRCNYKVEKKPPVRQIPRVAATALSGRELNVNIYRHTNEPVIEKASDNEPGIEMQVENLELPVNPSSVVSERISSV
# Assay: DRUGMATRIX: Serotonin (5-Hydroxytryptamine) 5-HT2C radioligand binding (ligand: [3H] Mesulergine)
# Type: cell membranes, CHO-K1, Membrane
# Conditions: cho-k1; Not Active = under 50% inhibition at 10 µM
Compound,IC50,Ki
CO[C@H]1O[C@@H]2O[C@@]3(C)CC[C@H]4[C@H](C)CC[C@@H]([C@H]1C)[C@@]24OO3,Not Active,
Nc1ccc(C(=O)O)c(O)c1 [AMINOSALICYLIC ACID],Not Active,
Nc1nc(F)nc2c1ncn2[C@@H]1O[C@H](CO)[C@@H](O)[C@@H]1O [FLUDARABINE],Not Active,
CHROMIC CHLORIDE,Not Active,Not Active
O=C(O)CO [GLYCOLIC ACID],Not Active,
COC(=O)C[C@](O)(CCC(C)(C)O)C(=O)O[C@@H]1C(OC)=C[C@]23CCCN2CCc2cc4c(cc2[C@H]13)OCO4 [HARRINGTONINE],Not Active,
CC12CCC(CC1=O)C2(C)C (stereo not given) [CAMPHOR],Not Active,
CCN1CCN(C(=O)N[C@@H](C(=O)N[C@@H]2C(=O)N3[C@@H]2SC(C)(C)[C@@H]3C(=O)O)c2ccccc2)C(=O)C1=O [PIPERACILLIN],Not Active,
C=CCO [ALLYL ALCOHOL],Not Active,
O=C(O)CCc1nc(-c2ccccc2)c(-c2ccccc2)o1 [OXAPROZIN],Not Active,
c1ccc2sc(SSc3nc4ccccc4s3)nc2c1 [BENZOTHIAZYL DISULFIDE],Not Active,
O=C1CN(/N=C/c2ccc([N+](=O)[O-])o2)C(=O)N1 [NITROFURANTOIN],Not Active,

# Molecular target: T2, Vasoactive intestinal polypeptide receptor 1 (Homo sapiens, UniProt P32241); also: in other assays of this panel Not Active means under 50% inhibition at 10 µM
# T2 sequence (P32241 whole entry): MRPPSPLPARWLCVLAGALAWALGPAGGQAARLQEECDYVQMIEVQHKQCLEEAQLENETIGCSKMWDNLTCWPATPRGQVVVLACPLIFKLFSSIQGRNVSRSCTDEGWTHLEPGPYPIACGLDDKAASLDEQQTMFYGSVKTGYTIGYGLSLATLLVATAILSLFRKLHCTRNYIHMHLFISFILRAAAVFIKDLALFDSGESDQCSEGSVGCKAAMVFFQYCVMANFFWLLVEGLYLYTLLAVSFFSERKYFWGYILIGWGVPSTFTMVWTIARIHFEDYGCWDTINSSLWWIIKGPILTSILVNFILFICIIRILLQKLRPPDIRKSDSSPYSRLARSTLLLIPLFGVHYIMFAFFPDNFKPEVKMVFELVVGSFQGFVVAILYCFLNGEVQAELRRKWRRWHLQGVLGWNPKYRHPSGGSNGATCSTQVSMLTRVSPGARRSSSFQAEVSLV
# Type: cell membranes, Membrane
# Conditions: ht-29
Compound,IC50,Ki
CO[C@H]1O[C@@H]2O[C@@]3(C)CC[C@H]4[C@H](C)CC[C@@H]([C@H]1C)[C@@]24OO3,Not Active,
Nc1ccc(C(=O)O)c(O)c1 [AMINOSALICYLIC ACID],Not Active,
Nc1nc(F)nc2c1ncn2[C@@H]1O[C@H](CO)[C@@H](O)[C@@H]1O [FLUDARABINE],Not Active,
CHROMIC CHLORIDE,Not Active,Not Active
O=C(O)CO [GLYCOLIC ACID],Not Active,
COC(=O)C[C@](O)(CCC(C)(C)O)C(=O)O[C@@H]1C(OC)=C[C@]23CCCN2CCc2cc4c(cc2[C@H]13)OCO4 [HARRINGTONINE],Not Active,
CC12CCC(CC1=O)C2(C)C (stereo not given) [CAMPHOR],Not Active,
CCN1CCN(C(=O)N[C@@H](C(=O)N[C@@H]2C(=O)N3[C@@H]2SC(C)(C)[C@@H]3C(=O)O)c2ccccc2)C(=O)C1=O [PIPERACILLIN],Not Active,
C=CCO [ALLYL ALCOHOL],Not Active,
O=C(O)CCc1nc(-c2ccccc2)c(-c2ccccc2)o1 [OXAPROZIN],Not Active,
c1ccc2sc(SSc3nc4ccccc4s3)nc2c1 [BENZOTHIAZYL DISULFIDE],Not Active,
O=C1CN(/N=C/c2ccc([N+](=O)[O-])o2)C(=O)N1 [NITROFURANTOIN],Not Active,

# Molecular target: T3, Alpha-1B adrenergic receptor (Rattus norvegicus, UniProt P15823)
# T3 sequence (P15823 whole entry): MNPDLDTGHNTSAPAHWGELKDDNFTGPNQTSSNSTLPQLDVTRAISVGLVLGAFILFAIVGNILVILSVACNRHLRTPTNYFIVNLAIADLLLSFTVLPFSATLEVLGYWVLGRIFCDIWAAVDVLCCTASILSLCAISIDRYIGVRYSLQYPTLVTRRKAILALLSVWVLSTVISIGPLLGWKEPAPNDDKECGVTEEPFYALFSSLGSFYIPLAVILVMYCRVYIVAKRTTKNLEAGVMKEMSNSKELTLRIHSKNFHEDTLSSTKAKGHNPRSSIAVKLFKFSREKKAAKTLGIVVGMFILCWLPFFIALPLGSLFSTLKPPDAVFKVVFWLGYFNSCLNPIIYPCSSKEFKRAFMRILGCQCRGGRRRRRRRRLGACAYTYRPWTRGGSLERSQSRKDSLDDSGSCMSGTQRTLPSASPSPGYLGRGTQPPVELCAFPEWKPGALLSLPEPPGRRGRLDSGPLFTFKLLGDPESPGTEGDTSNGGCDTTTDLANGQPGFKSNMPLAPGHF
# Assay: DRUGMATRIX: Alpha-1B adrenergic receptor radioligand binding (ligand: prazosin)
# Type: cell membranes, Wistar, Liver, Membrane
# Conditions: Not Active = under 50% inhibition at 10 µM
Compound,IC50,Ki
CO[C@H]1O[C@@H]2O[C@@]3(C)CC[C@H]4[C@H](C)CC[C@@H]([C@H]1C)[C@@]24OO3,Not Active,
Nc1ccc(C(=O)O)c(O)c1 [AMINOSALICYLIC ACID],Not Active,
Nc1nc(F)nc2c1ncn2[C@@H]1O[C@H](CO)[C@@H](O)[C@@H]1O [FLUDARABINE],Not Active,
CHROMIC CHLORIDE,Not Active,Not Active
O=C(O)CO [GLYCOLIC ACID],Not Active,
COC(=O)C[C@](O)(CCC(C)(C)O)C(=O)O[C@@H]1C(OC)=C[C@]23CCCN2CCc2cc4c(cc2[C@H]13)OCO4 [HARRINGTONINE],Not Active,
CC12CCC(CC1=O)C2(C)C (stereo not given) [CAMPHOR],Not Active,
CCN1CCN(C(=O)N[C@@H](C(=O)N[C@@H]2C(=O)N3[C@@H]2SC(C)(C)[C@@H]3C(=O)O)c2ccccc2)C(=O)C1=O [PIPERACILLIN],Not Active,
C=CCO [ALLYL ALCOHOL],Not Active,
O=C(O)CCc1nc(-c2ccccc2)c(-c2ccccc2)o1 [OXAPROZIN],Not Active,
c1ccc2sc(SSc3nc4ccccc4s3)nc2c1 [BENZOTHIAZYL DISULFIDE],Not Active,
O=C1CN(/N=C/c2ccc([N+](=O)[O-])o2)C(=O)N1 [NITROFURANTOIN],Not Active,

# Molecular target: Cytochrome P450 2E1 (Homo sapiens, UniProt P05181); also: in other assays of this panel Not Active means under 50% inhibition at 10 µM
# Conditions: bti-tn-5b1-4
# Cytochrome P450 2E1, sequence (P05181 whole entry): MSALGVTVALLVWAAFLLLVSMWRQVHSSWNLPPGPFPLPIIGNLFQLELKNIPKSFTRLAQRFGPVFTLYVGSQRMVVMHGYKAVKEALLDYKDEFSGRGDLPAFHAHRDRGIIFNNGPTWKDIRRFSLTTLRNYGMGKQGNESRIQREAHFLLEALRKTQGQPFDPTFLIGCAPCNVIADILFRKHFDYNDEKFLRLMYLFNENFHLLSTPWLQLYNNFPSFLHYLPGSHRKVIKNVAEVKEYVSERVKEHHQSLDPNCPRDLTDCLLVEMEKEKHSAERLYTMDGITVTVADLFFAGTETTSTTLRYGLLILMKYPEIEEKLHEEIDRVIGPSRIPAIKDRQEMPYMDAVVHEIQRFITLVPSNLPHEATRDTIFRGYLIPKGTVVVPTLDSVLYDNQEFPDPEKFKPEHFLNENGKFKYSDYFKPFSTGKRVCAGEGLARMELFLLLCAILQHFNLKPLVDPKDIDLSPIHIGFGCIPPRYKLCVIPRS
Compound,IC50,Ki
CO[C@H]1O[C@@H]2O[C@@]3(C)CC[C@H]4[C@H](C)CC[C@@H]([C@H]1C)[C@@]24OO3,Not Active,Not Active
Nc1ccc(C(=O)O)c(O)c1 [AMINOSALICYLIC ACID],Not Active,Not Active
Nc1nc(F)nc2c1ncn2[C@@H]1O[C@H](CO)[C@@H](O)[C@@H]1O [FLUDARABINE],Not Active,Not Active
CHROMIC CHLORIDE,Not Active,Not Active
O=C(O)CO [GLYCOLIC ACID],Not Active,Not Active
COC(=O)C[C@](O)(CCC(C)(C)O)C(=O)O[C@@H]1C(OC)=C[C@]23CCCN2CCc2cc4c(cc2[C@H]13)OCO4 [HARRINGTONINE],Not Active,Not Active
CC12CCC(CC1=O)C2(C)C (stereo not given) [CAMPHOR],Not Active,Not Active
CCN1CCN(C(=O)N[C@@H](C(=O)N[C@@H]2C(=O)N3[C@@H]2SC(C)(C)[C@@H]3C(=O)O)c2ccccc2)C(=O)C1=O [PIPERACILLIN],Not Active,Not Active
C=CCO [ALLYL ALCOHOL],Not Active,Not Active
O=C(O)CCc1nc(-c2ccccc2)c(-c2ccccc2)o1 [OXAPROZIN],Not Active,Not Active
c1ccc2sc(SSc3nc4ccccc4s3)nc2c1 [BENZOTHIAZYL DISULFIDE],Not Active,Not Active
O=C1CN(/N=C/c2ccc([N+](=O)[O-])o2)C(=O)N1 [NITROFURANTOIN],Not Active,Not Active

# Molecular target: T4, Endothelin-1 receptor (Homo sapiens, UniProt P25101); also: in other assays of this panel Not Active means under 50% inhibition at 10 µM
# T4 sequence (P25101 whole entry): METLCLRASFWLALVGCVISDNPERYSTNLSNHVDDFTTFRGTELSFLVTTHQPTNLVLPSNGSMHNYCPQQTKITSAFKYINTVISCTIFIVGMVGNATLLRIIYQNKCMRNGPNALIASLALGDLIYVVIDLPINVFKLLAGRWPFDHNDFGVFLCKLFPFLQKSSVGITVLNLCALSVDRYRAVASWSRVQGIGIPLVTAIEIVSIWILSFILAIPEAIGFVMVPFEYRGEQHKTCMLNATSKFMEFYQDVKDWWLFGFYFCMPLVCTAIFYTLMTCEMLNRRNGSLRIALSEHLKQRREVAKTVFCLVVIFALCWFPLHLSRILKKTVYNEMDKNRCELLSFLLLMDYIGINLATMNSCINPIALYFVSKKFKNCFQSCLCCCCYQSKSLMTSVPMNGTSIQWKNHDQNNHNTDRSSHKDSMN
# Type: cell membranes, Membrane
# Conditions: cho-k1
Compound,IC50,Ki
CO[C@H]1O[C@@H]2O[C@@]3(C)CC[C@H]4[C@H](C)CC[C@@H]([C@H]1C)[C@@]24OO3,Not Active,
Nc1ccc(C(=O)O)c(O)c1 [AMINOSALICYLIC ACID],Not Active,
Nc1nc(F)nc2c1ncn2[C@@H]1O[C@H](CO)[C@@H](O)[C@@H]1O [FLUDARABINE],Not Active,
CHROMIC CHLORIDE,Not Active,Not Active
O=C(O)CO [GLYCOLIC ACID],Not Active,
COC(=O)C[C@](O)(CCC(C)(C)O)C(=O)O[C@@H]1C(OC)=C[C@]23CCCN2CCc2cc4c(cc2[C@H]13)OCO4 [HARRINGTONINE],Not Active,
CC12CCC(CC1=O)C2(C)C (stereo not given) [CAMPHOR],Not Active,
CCN1CCN(C(=O)N[C@@H](C(=O)N[C@@H]2C(=O)N3[C@@H]2SC(C)(C)[C@@H]3C(=O)O)c2ccccc2)C(=O)C1=O [PIPERACILLIN],Not Active,
C=CCO [ALLYL ALCOHOL],Not Active,
O=C(O)CCc1nc(-c2ccccc2)c(-c2ccccc2)o1 [OXAPROZIN],Not Active,
c1ccc2sc(SSc3nc4ccccc4s3)nc2c1 [BENZOTHIAZYL DISULFIDE],Not Active,
O=C1CN(/N=C/c2ccc([N+](=O)[O-])o2)C(=O)N1 [NITROFURANTOIN],Not Active,

# System: not listed separately
# Assay: DRUGMATRIX: Phosphodiesterase PDE3 enzyme inhibition (substrate: [3H]cAMP + cAMP)
# Type: tissue-based, Homo sapiens
# Conditions: platelet; Not Active = under 50% inhibition at 10 µM
Compound,IC50,Ki
CO[C@H]1O[C@@H]2O[C@@]3(C)CC[C@H]4[C@H](C)CC[C@@H]([C@H]1C)[C@@]24OO3,Not Active,Not Active
Nc1ccc(C(=O)O)c(O)c1 [AMINOSALICYLIC ACID],Not Active,Not Active
Nc1nc(F)nc2c1ncn2[C@@H]1O[C@H](CO)[C@@H](O)[C@@H]1O [FLUDARABINE],Not Active,Not Active
CHROMIC CHLORIDE,Not Active,Not Active
O=C(O)CO [GLYCOLIC ACID],Not Active,Not Active
COC(=O)C[C@](O)(CCC(C)(C)O)C(=O)O[C@@H]1C(OC)=C[C@]23CCCN2CCc2cc4c(cc2[C@H]13)OCO4 [HARRINGTONINE],Not Active,Not Active
CC12CCC(CC1=O)C2(C)C (stereo not given) [CAMPHOR],Not Active,Not Active
CCN1CCN(C(=O)N[C@@H](C(=O)N[C@@H]2C(=O)N3[C@@H]2SC(C)(C)[C@@H]3C(=O)O)c2ccccc2)C(=O)C1=O [PIPERACILLIN],Not Active,Not Active
C=CCO [ALLYL ALCOHOL],Not Active,Not Active
O=C(O)CCc1nc(-c2ccccc2)c(-c2ccccc2)o1 [OXAPROZIN],Not Active,Not Active
c1ccc2sc(SSc3nc4ccccc4s3)nc2c1 [BENZOTHIAZYL DISULFIDE],Not Active,Not Active
O=C1CN(/N=C/c2ccc([N+](=O)[O-])o2)C(=O)N1 [NITROFURANTOIN],Not Active,Not Active
